This assay concerns A54145.1, A54145.2, and A54145.3. Put plainly: Resistance to antibiotics, sensitivity discs on seeded ISP No. 2 agar plates. The format is cell-based, Streptomyces fradiae. The procedure: A54145.1, A54145.2, and A54145.3 had identical antibiotic-resistance patterns. The strains were resistant to lincomycin at 2 µg and penicillin G at 10 units. The strains were sensitive to bacitracin at 10 units, cephalothin at 30 µg, gentamicin at 10 µg, neomycin at 30 µg, oleandomycin at 15 µg, rifampin at 5 µg, streptomycin at 10 µg, tetracycline at 30 µg, tobramycin at 10 µg and vancomycin at 30 µg.

For `CC(=O)OCC1=C(C(=O)O)N2C(=O)[C@@H](NC(=O)Cc3cccs3)[C@H]2SC1` [cephalothin], the antibiotic-resistance pattern result (disc at 30 µg) was “sensitive”. `CCC[C@@H]1C[C@@H](C(=O)N[C@@H]([C@H]2O[C@H](SC)[C@H](O)[C@@H](O)[C@H]2O)[C@@H](C)O)N(C)C1` [lincomycin]: the antibiotic-resistance pattern result (disc at 2 µg) is given as “resistant”.

As to `CO[C@H]1C[C@H](O[C@H]2[C@H](C)[C@@H](O[C@@H]3O[C@H](C)C[C@H](N(C)C)[C@H]3O)[C@@H](C)C[C@@]3(CO3)C(=O)[C@H](C)[C@@H](O)[C@@H](C)[C@@H](C)OC(=O)[C@@H]2C)O[C@@H](C)[C@@H]1O` [oleandomycin], the antibiotic-resistance pattern result (disc at 15 µg) is listed as “sensitive”. With `CC1(C)S[C@@H]2[C@H](NC(=O)Cc3ccccc3)C(=O)N2[C@H]1C(=O)O` [penicillin G], the antibiotic-resistance pattern entry (disc at 10 units) is given as “resistant”. Turning to `CO[C@H]1/C=C/O[C@@]2(C)Oc3c(C)c(O)c4c(O)c(c(/C=N/N5CCN(C)CC5)c(O)c4c3C2=O)NC(=O)/C(C)=C\C=C\[C@H](C)[C@H](O)[C@@H](C)[C@@H](O)[C@@H](C)[C@H](OC(C)=O)[C@@H]1C` [rifampin], under “disc at 5 µg”, the antibiotic-resistance pattern result is reported as “sensitive”.

As for `[H]/N=C(/N)N[C@H]1[C@H](O)[C@@H](O)[C@H](O[C@@H]2O[C@@H](C)[C@](O)(C=O)[C@H]2O[C@@H]2O[C@@H](CO)[C@H](O)[C@@H](O)[C@@H]2NC)[C@@H](N/C(N)=N\[H])[C@@H]1O` [streptomycin], the antibiotic-resistance pattern entry (disc at 10 µg) is given as “sensitive”. Regarding `NC[C@H]1O[C@H](O[C@H]2[C@H](O)[C@@H](O[C@H]3O[C@H](CO)[C@@H](O)[C@H](N)[C@H]3O)[C@H](N)C[C@@H]2N)[C@H](N)C[C@@H]1O` [tobramycin], the antibiotic-resistance pattern result (disc at 10 µg) is “sensitive”.

Regarding `CN[C@H](CC(C)C)C(=O)N[C@H]1C(=O)N[C@@H](CC(N)=O)C(=O)N[C@H]2C(=O)N[C@H]3C(=O)N[C@H](C(=O)N[C@H](C(=O)O)c4cc(O)cc(O)c4-c4cc3ccc4O)[C@H](O)c3ccc(c(Cl)c3)Oc3cc2cc(c3O[C@@H]2O[C@H](CO)[C@@H](O)[C@H](O)[C@H]2O[C@H]2C[C@](C)(N)[C@H](O)[C@H](C)O2)Oc2ccc(cc2Cl)[C@H]1O` [vancomycin], the antibiotic-resistance pattern entry (disc at 30 µg) is reported as “sensitive”. For the compound bacitracin, where the note is “disc at 10 units”, the antibiotic-resistance pattern entry was “sensitive”. On to gentamicin, for which, under “disc at 10 µg”, the antibiotic-resistance pattern entry is given as “sensitive”.

On to neomycin, for which the antibiotic-resistance pattern entry (disc at 30 µg) is “sensitive”.

Source of the values: patent EP0337731B1, “Peptide antibiotics” (ELI LILLY AND COMPANY, priority 1988, dated 1989).
